Experimental data reported in patent US20210008161A1, “METHODS AND COMPOSITIONS FOR IMPROVED HOMOLOGY DIRECTED REPAIR” (CRISPR THERAPEUTICS AG, priority 2019, published 2021).

How the values were obtained:
Type in all cases: cell-based, human
[1] = system: HEK293 T cells; test: GFP to BFP fluorescent reporter assay of HDR efficiency (AAVS1 locus)
Procedure: The effect of DNA PK inhibition by Nu7441 correction of a DSB by the NHEJ pathway (e.g., introduce an indel at the DSB site) or HDR pathway (e.g., introduce a gene mutation encoded by a homology donor at the DSB site) was assessed using the reporter system described in Example 1. In this case gene-editing was evaluated in HEK293 T cells expressing GFP in the AAVS1 locus. To introduce a gene edit that converts GFP to BFP, cells were electroporated with ribonucleoprotein (RNP) comprised of Cas9 and gRNA1 (GFP target sequence identified by SEQ ID NO: 9; sgRNA spacer sequence identified by SEQ ID NO: 10) or gRNA2 (GFP target sequence identified by SEQ ID NO: 11; sgRNA spacer identified by SEQ ID NO: 12) that targets the GFP gene encoded in the AAVS1 locus. The cells were also transfected with ssODNs that encoded the gene correction necessary to convert GFP to BFP and homology arms complimentary to the sequence upstream and downstream of the target gene cut site. The efficiency of HDR repair was determined by measuring the level of cell BFP fluorescence. The efficiency of cutting (indel information) was monitored by TIDE analysis.
Shown in FIGS. 2A-2B is a comparison of HDR editing efficiency for cells treated with Nu7441, SCR7, or RS-1. Shown in FIG. 2A are cells were electroporated with RNP comprising Cas9 and gRNA1 (GFP target sequence shown in SEQ ID NO: 9; sgRNA spacer sequence identified by SEQ ID NO: 10). 2×10^5 cells were edited with 1 μM Cas9 and 1.5 μM gRNA1. The cells were transfected with four different ssODNs. These included ssODN 1067 (SEQ ID NO: 29) and ssODN 1069 (SEQ ID NO: 31) that are complimentary to the DNA strand containing the PAM sequence and ssODN 1068 (SEQ ID NO: 30) and ssODN 1070 (SEQ ID NO: 32) that are complimentary to the DNA strand not containing the PAM sequence. Cells were edited with 100 μM ssODN. A concentrated stock solution of each inhibitor was prepared in DMSO and diluted to a final concentration of 2.5 μM Nu7441, 1.25 μM SCR7, or 10 μM RS-1. HDR efficiency was compared relative to treatment with DMSO alone or to treatment with RNP-only.
Shown in FIG. 2B are cells were electroporated with RNP comprising Cas9 and gRNA2 (GFP target sequence shown in SEQ ID NO: 11; sgRNA spacer sequence shown in SEQ ID NO: 12). The cells were transfected with four different ssODNs. These included ssODN 1061 (SEQ ID NO: 33) and ssODN 1063 (SEQ ID NO: 35) that are complimentary to the DNA strand containing the PAM sequence and ssODN 1062 (SEQ ID NO: 34) and ssODN 1064 (SEQ ID NO: 36) that are complimentary to the DNA strand not containing the PAM sequence.

[2] = system: HEK293 T cells; test: Gene correction by NHEJ repair at GSD1a locus with dsDNA donors; settings: dsDNA donor 50-0 or 150-0, 2.5 μM Nu7441, 1.25 μM SCR7 or 10 μM RS-1, vs DMSO alone, FIG. 3
Procedure: The effect of Nu7441 treatment on gene correction by the NHEJ pathway was also evaluated. To do so, the cells were transfected with two different dsDNA donors: 50-0 (SEQ ID NO: 37) or 150-0 (SEQ ID NO: 38). Cells were edited with 1.5 μg dsDNA donor. These dsDNA donors, lacking homology arms, introduce a second 3′ splice site into exon 2 at the GSD1a locus when inserted into the cut site induced by the Cas9-guide complex by NHEJ repair. The cells were treated with 2.5 μM Nu7441, 1.25 μM SCR7, or 10 μM RS-1 and gene correction by NHEJ repair was evaluated. […] Treatment with SCR7 or RS-1 had no effect over DMSO alone.

[3] = system: CD34-expressing LT-HSPCs; test: HDR insertion of AAV-delivered GFP donor into HBB locus (GFP fluorescence)
Procedure: Frozen CD34-expressing LT-HSPCs derived from plerixafor (i.e., Mozibil®)+GCSF-dual mobilized peripheral blood obtained from healthy human donors were purchased from a commercial vendor. LT-HSPCs were maintained in culture media comprised of the reagents shown in Table 4 and were incubated at 37° C., 5% carbon dioxide, 4% oxygen. […] 2×10^5 cells were edited with 3 μg Cas9 and 3 μg gRNA. The target gene sequence (including target sequence with PAM), R02 spacer sequence, and R02 sgRNA sequence are identified in Table 3.
The cells were transfected with a dsDNA homology donor encoding GFP under a SFFV promoter (SEQ ID NO: 60) that was delivered by AAV (SEQ ID NO: 56). […] The HDR efficiency was determined by measuring the level of GFP fluorescence in the cells following electroporation. To determine the effect of 53BP1 inhibition on HDR efficiency, the 53BP1 inhibitor i53 was introduced as an mRNA-encoded protein to the cells during electroporation with Cas9/gRNA RNP and AAV DNA that serves as a donor for homology directed repair.
The effect of 53BP1 inhibition on HDR efficiency was compared to other mRNA-encoded proteins that inhibit the NHEJ pathway. These included the proteins CYREN1 and CYREN2 that inhibit Ku70/80, a heterodimer that binds DNA blunt ends to prevent processing of 3′ single-stranded DNA tails necessary for HDR repair. Cells were electroporated with RNP, an AAV-GFP homology donor and mRNA encoding either i53 (mRNA ORF shown in SEQ ID NO: 69), CYREN1, or CYREN2.
The effect of treatment with i53 and Nu7441 was compared for improving efficiency of HDR repair of the HBB locus. Cells were treated with different doses of Nu7441 or with mRNA encoding i53 (ORF shown by SEQ ID NO: 69).

[4] = gRNA1, ssODN 1067-1070, 2.5 μM Nu7441, 1.25 μM SCR7 or 10 μM RS-1, vs DMSO, FIG. 2A
[5] = 0.75 μg mRNA encoding i53, 5 μM Nu7441, control mRNA DM, FIG. 6C

Compound | HDR efficiency [1, 4] | HDR efficiency ([1]; gRNA2, ssODN 1061-1064, 2.5 μM Nu7441) | gene correction by NHEJ repair [2] | HDR efficiency [3, 5] | HDR efficiency at each dose ([3]; 0.5, 1, and 2 μg i53 mRNA, FIG. 6A) | fold increase in HDR efficiency ([3]; GFP donor into HBB locus, mRNA encoding i53, over RNP+AAV-only, FIG. 6A) | HDR efficiency ([3]; mRNA-encoded proteins, i53 mRNA at 0.3 μg or 1 μg, over RNP+AAV-only, FIG. 6B)
O=c1cc(N2CCOCC2)oc2c(-c3cccc4c3sc3ccccc34)cccc12 [Nu7441] | improved | improved | substantial decrease | comparable increase | – | – | –
O=C(Nc1ccc(Br)cc1)c1ccc(Br)c(S(=O)(=O)NCc2ccccc2)c1 [RS-1] | no improvement | – | no effect | – | – | – | –
O=c1[nH]c(=S)[nH]c(N=Cc2ccccc2)c1N=Cc1ccccc1 [SCR7] | no improvement | – | no effect | – | – | – | –
i53: polypeptide inhibitor of 53BP1 (SEQ ID NO: 70), introduced as an mRNA-encoded protein (ORF SEQ ID NO: 69) | – | – | – | comparable increase | improved | approximately 1.3 fold | increased
